Assay results reported in EP2210881A1, “Derivatives of syringolin A” (Max-Planck-Gesellschaft zur Förderung der Wissenschaften …, priority 2009, dated 2010).
Where two headings read alike, the source gives them in different places.

What was measured:
Type in all cases: biochemical
human 20S proteasome [1] = target: T1, human 20S proteasome (Homo sapiens, UniProt Q99436); assay: Proteasome inhibition assay, tryptic activity (substrate Boc-LRR-AMC)
T1 construct: human erythrocyte 20S proteasomes (AK-740, Biomol); purchased Biomol AK-740; host or cells: human erythrocytes
Text: (§1) The Ki' value is defined as the apparent dissociation constant of the inhibitor. The Ki' value can be calculated from the IC50 value using the equation: Ki' = IC50 * Km / (S+Km), wherein S is the concentration of the substrate, and Km is the substrate concentration (in the absence of an inhibitor) at which the velocity of the reaction is half-maximal. The Ki' of an inhibitor for inhibition of a particular substrate (fixed Km) is constant.
As used herein, the term "tryptic activity" refers to inhibition of the human 20S proteasome measured by the reduced proteolytic cleavage of the "tryptic" proteasome substrate Boc-LRR-AMC.
(§2) Proteasome inhibition assays were performed with human erythrocyte 20S proteasomes (AK-740, Biomol) at 37 °C in 100 µL reaction volumes containing 2 µg ml^-1 20 proteasome and 100 µM Suc-LLVY-AMC as a substrate. Cleavage efficience in presence of varying inhibitor concentrations were followed by an MWGt Sirius HT plate reader (BIO-TEK instruments) equipped with 360 nm excitation and 460 nm emission filters. The obtained fluorescence values (RFU) were plotted versus time (t). The fluorescence data were fitted by the least squares method using SigmaPlot 10.0 software (Systat Software) to the equation f = f0 + Vst + [(vi - vs)/kobs][1-exp(-kobs*t)], where vi and vs are initial and final velocities, respectively, and kobs is the pseudo-first order associaten rate constant. Ki' values were then determined by plotting vi against inhibitor concentration [I]. Using SigmaPlot, the data were fitted with the hyperbolic equation vi = c + [v0/(Ki' + [I])] where v0 is the velocity of the control.
The inhibition of the tryptic proteasome activity was performed in analogy to example 7 with using Boc-LRR-AMC as a substrate instead of Suc-LLVY-AMC.

human 20S proteasome [2] = target: T2, human 20S proteasome (Homo sapiens, UniProt P28074); assay: Proteasome inhibition assay, chymotryptic activity (substrate Suc-LLVY-AMC)
T2 construct: human erythrocyte 20S proteasomes (AK-740, Biomol); purchased Biomol AK-740; host or cells: human erythrocytes
Text: as §1
As used herein, the term "chymotryptic activity" refers to inhibition of the human 20S proteasome measured by the reduced proteolytic cleavage of the "chymotryptic" proteasome substrate Suc-LLVY-AMC.
as §2

human 20S proteasome [3] = target: T3, human 20S proteasome (Homo sapiens, UniProt P28072); assay: Proteasome inhibition assay, caspase-like activity (substrate Z-LLE-AMC)
T3 construct: human erythrocyte 20S proteasomes (AK-740, Biomol); purchased Biomol AK-740; host or cells: human erythrocytes
Text: as §1
As used herein, the term "caspase-like activity" refers to inhibition of the human 20S proteasome measured by the reduced proteolytic cleavage of the "caspase-lie" proteasome substrate Z-LLE-AMC.
as §2
The inhibition of the caspase-like proteasome activity was performed in analogy to example 7 with using Z-LLE-AMC as a substrate instead of Suc-LLVY-AMC.

SMILES | Ki (human 20S proteasome [1]) [nM] | Ki (human 20S proteasome [2]) [nM] | Ki (human 20S proteasome [3]) [nM] | Ki (human 20S proteasome [1]; read-out: tryptic activity [Ki' value in nM], human erythrocyte 20S proteasomes, substrate Boc-LRR-AMC, 37 °C, Ki' = apparent dissociation constant) [nM] | Ki (human 20S proteasome [2]; read-out: chymotryptic activity [Ki' value in nM], human erythrocyte 20S proteasomes, substrate Suc-LLVY-AMC 100 µM, 37 °C, Ki' = apparent dissociation constant) [nM] | Ki (human 20S proteasome [3]; read-out: caspase-like activity [Ki' value in nM], human erythrocyte 20S proteasomes, substrate Z-LLE-AMC, 37 °C, Ki' = apparent dissociation constant) [nM]
CCCCCCCCCCNC(=O)N[C@H](C(=O)N[C@H]1/C=C/CCNC(=O)/C=C/[C@H](C(C)C)NC1=O)C(C)C [Compound 4, SylA-decanyl] | 20 to 100 | < 20 | > 100 | – | – | –
COCCOCCOCCNC(=O)N[C@H](C(=O)N[C@H]1/C=C/CCNC(=O)/C=C/[C@H](C(C)C)NC1=O)C(C)C [Compound 5, SylA-PEG2] | 20 to 100 | < 20 | > 100 | – | – | –
CC(C)[C@H](NC(=O)N[C@H](C(=O)N[C@H]1/C=C/CCNC(=O)/C=C/[C@H](C(C)C)NC1=O)C(C)C)C(=O)NCCCCCNC(=O)c1ccc(-c2c3ccc(=[N+](C)C)cc-3oc3cc(N(C)C)ccc23)c(C(=O)[O-])c1 [Compound 2, SylA-Rhodamine] | – | – | – | > 100 | > 100 | > 50000
COCCOCCNC(=O)[C@@H](NC(=O)N[C@H](C(=O)N[C@H]1/C=C/CCNC(=O)/C=C/[C@H](C(C)C)NC1=O)C(C)C)C(C)C [Compound 3, SylA-PEG1] | 20 to 100 | < 20 | > 100 | – | – | –
COC(=O)[C@@H](NC(=O)N[C@H](C(=O)N[C@H]1/C=C/CCNC(=O)/C=C/[C@H](C(C)C)NC1=O)C(C)C)C(C)C [Compound 1, SylA-OCH3] | > 100 | > 100 | > 50000 | – | – | –
